# Test system: GTL16 (human stomach carcinoma)
# Experiment: Tumor growth model for treated subjects, GTL16 inoculated subcutaneously in athymic nude mice (Experiment-A)
# Format: in vivo
# From the text: The cell line GTL16 (human stomach carcinoma) was inoculated subcutaneously on the back of 44 athymic nude male mice, initially weighing 17.9-28.1 g.
# The dimensions of the tumor can be taken applying different types of measurements broadly classifiable as measurements of linear dimensions, of volume (or mass) and cell number. For tumors that maintain more or less a spherical morphology, as in the case of solid tumors, the measurement of the three principal diameters results the most adequate, as well as the most practiced solution. Nevertheless, in the case of subcutaneous tumors, the tumor can be considered of spherical shape only during the initial phase of growth; in the following phases, the dimension perpendicular to the skin is generally much smaller than the percutaneous dimensions, conferring to the mass a plaque-like shape or an hemi-ellipsoidal shape. In the experiments taken into consideration, only the dimensions of the two percutaneous diameters were directly measured with vernier calipers. The third dimension was not directly measured, because of the limited accessibility (which would have required a greater invasiveness), in the assumption that two measures were anyhow sufficient to guarantee a good approximation of the tumor mass (K. Rygaard and M. Spang-Thomsen, “Quantitation and Gompertzian analysis of tumor growth”. Breast Cancer Research and Treatment, 46: 303-312,1997).
# The volume of a tumor can be indirectly calculated by applying the following empirical formula: [formula] where DMIN and DMAX denote, respectively, the smallest and the largest percutaneous diameter. Such empirical formula hypothesizes that the neoplasia has an ellipsoidal shape (D. A. Cameron, W. M. Gregory, A. Bowman, E. D. C. Anderson, P. Levack, P. Forouhi and R. F. C. Leonard, “Identification of long-term survivors in primary breast cancer by dynamic modeling of tumour response”. British Journal of Cancer, 83(1): 98-103, 2000, Hammond, L. A.; Hilsenbeck, S. G.; Eckhardt, S. G.; Marty, J; Mangold, G.; MacDonald, G. R.; Rowinsky, E. K.; Von Hoff, D. D; Weitman S. Enhanced antitumour activity of 6-hydroxymethylacylfulvene in combination with topotecan or paclitaxel in the MV522 lung carcinoma xenograft model. European Journal of Cancer 2000, 36, 2430-2436) obtained by the rotation of a hemi-ellipsoid (with DMIN and DMAX as axes of the percutaneous plane) around its largest axe. Assuming δ as a constant density equal to δ=10^−3g/mm^3, the empirical expression for the mass of the neoplasia results to be: [formula] The Measurement Error Model
# As it regards the model of tumor growth, the error model above introduced is instead known. For the observed measurements of a generic quantity y (for instance the weight of the tumor), the constant coefficient of variation error model (3.5 and 3.6) asserts that the standard deviation of the error varies linearly with the dimension the measured quantity. With an error model of this kind, the technique of the weighed least squares (Weighed Least Squares, WLS), described in M. E. Dagna, “Identificazione di modelli farmacocinetici di popolazione”; Università degli Studi di Pavia 1999, herein incorporated as far as the WLS technique is concerned, is more adequate.
# [1] = mean of the twelve treated mice (20, 30, 40 mg/kg q4dx3)
# [2] = mouse 0, 20 mg/kg iv-bolus q4dx3
# [3] = mouse 26, 40 mg/kg iv-bolus q4dx3
# [4] = mouse 28, 30 mg/kg iv-bolus q4dx3
# [5] = mouse 31, 20 mg/kg iv-bolus q4dx3
# [6] = mouse 55, 20 mg/kg iv-bolus q4dx3
# [7] = mouse 59, 30 mg/kg iv-bolus q4dx3
# [8] = mouse 64, 30 mg/kg iv-bolus q4dx3
# [9] = mouse 69, 20 mg/kg iv-bolus q4dx3
# [10] = mouse 78, 40 mg/kg iv-bolus q4dx3
# [11] = mouse 80, 40 mg/kg iv-bolus q4dx3
# [12] = mouse 81, 40 mg/kg iv-bolus q4dx3
# [13] = mouse 88, 30 mg/kg iv-bolus q4dx3
# [14] = treated mouse 0, 20 mg/kg iv-bolus q4dx3
# [15] = treated mouse 26, 40 mg/kg iv-bolus q4dx3
# [16] = treated mouse 28, 30 mg/kg iv-bolus q4dx3
# [17] = treated mouse 31, 20 mg/kg iv-bolus q4dx3
# [18] = treated mouse 55, 20 mg/kg iv-bolus q4dx3
# [19] = treated mouse 59, 30 mg/kg iv-bolus q4dx3
# [20] = treated mouse 64, 30 mg/kg iv-bolus q4dx3
# [21] = treated mouse 69, 20 mg/kg iv-bolus q4dx3
# [22] = treated mouse 78, 40 mg/kg iv-bolus q4dx3
# [23] = treated mouse 80, 40 mg/kg iv-bolus q4dx3
# [24] = treated mouse 81, 40 mg/kg iv-bolus q4dx3
# [25] = treated mouse 88, 30 mg/kg iv-bolus q4dx3
smiles,measurement,setting,value
"CC(=O)O[C@H]1C(=O)[C@@]2(C)[C@H]([C@H](OC(=O)c3ccccc3)[C@]3(O)C[C@H](OC(=O)[C@H](O)[C@@H](NC(=O)c4ccccc4)c4ccccc4)C(C)=C1C3(C)C)[C@]1(OC(C)=O)CO[C@@H]1C[C@@H]2O [Drug-A, paclitaxel]","K1, mean",[1],0.1879 day⁻¹
same,"K2, mean",[1],0.002921 mL/g/day
same,"λ0, mean",[1],0.2467
same,"λ1, mean",[1],0.1274
same,K1 (index of the tumor cells death rate),[2],0.2057 day⁻¹
same,K2 (index of the potency of the compound),[2],0.01878 mL/g/day
same,K1 (index of the tumor cells death rate),[3],0.1658 day⁻¹
same,K2 (index of the potency of the compound),[3],0.00315 mL/g/day
same,K1 (index of the tumor cells death rate),[4],0.1406 day⁻¹
same,K2 (index of the potency of the compound),[4],0.000759 mL/g/day
same,K1 (index of the tumor cells death rate),[5],0.2683 day⁻¹
same,K2 (index of the potency of the compound),[5],0.003356 mL/g/day
same,K1 (index of the tumor cells death rate),[6],0.2424 day⁻¹
same,K2 (index of the potency of the compound),[6],0.002721 mL/g/day
same,K1 (index of the tumor cells death rate),[7],0.192 day⁻¹
same,K2 (index of the potency of the compound),[7],0.000563 mL/g/day
same,K1 (index of the tumor cells death rate),[8],0.1646 day⁻¹
same,K2 (index of the potency of the compound),[8],0.001085 mL/g/day
same,K1 (index of the tumor cells death rate),[9],0.1515 day⁻¹
same,K2 (index of the potency of the compound),[9],0.001361 mL/g/day
same,K1 (index of the tumor cells death rate),[10],0.2056 day⁻¹
same,K2 (index of the potency of the compound),[10],0.001507 mL/g/day
same,K1 (index of the tumor cells death rate),[11],0.209 day⁻¹
same,K2 (index of the potency of the compound),[11],0.000178 mL/g/day
same,K1 (index of the tumor cells death rate),[12],0.2206 day⁻¹
same,K2 (index of the potency of the compound),[12],0.000314 mL/g/day
same,K1 (index of the tumor cells death rate),[13],0.08819 day⁻¹
same,K2 (index of the potency of the compound),[13],0.001276 mL/g/day
same,"LAMBDA0 (production rate of tumor cells, exponential phase)",[14],0.2601
same,"LAMBDA1 (tumor cells mass produced in the time unit, linear phase)",[14],0.1563
same,"LAMBDA0 (production rate of tumor cells, exponential phase)",[15],0.2087
same,"LAMBDA1 (tumor cells mass produced in the time unit, linear phase)",[15],0.1678
same,"LAMBDA0 (production rate of tumor cells, exponential phase)",[16],0.2396
same,"LAMBDA1 (tumor cells mass produced in the time unit, linear phase)",[16],0.16
same,"LAMBDA0 (production rate of tumor cells, exponential phase)",[17],0.2726
same,"LAMBDA1 (tumor cells mass produced in the time unit, linear phase)",[17],0.08095
same,"LAMBDA0 (production rate of tumor cells, exponential phase)",[18],0.2377
same,"LAMBDA1 (tumor cells mass produced in the time unit, linear phase)",[18],0.07223
same,"LAMBDA0 (production rate of tumor cells, exponential phase)",[19],0.2458
same,"LAMBDA1 (tumor cells mass produced in the time unit, linear phase)",[19],0.07275
same,"λ0 (production rate of tumor cells, exponential phase)",[20],0.2565
same,"λ1 (tumor cells mass produced in the time unit, linear phase)",[20],0.18
same,"λ0 (production rate of tumor cells, exponential phase)",[21],0.2464
same,"λ1 (tumor cells mass produced in the time unit, linear phase)",[21],0.1782
same,"λ0 (production rate of tumor cells, exponential phase)",[22],0.2438
same,"λ1 (tumor cells mass produced in the time unit, linear phase)",[22],0.1276
same,"λ0 (production rate of tumor cells, exponential phase)",[23],0.234
same,"λ1 (tumor cells mass produced in the time unit, linear phase)",[23],0.05985
same,"λ0 (production rate of tumor cells, exponential phase)",[24],0.2723
same,"λ1 (tumor cells mass produced in the time unit, linear phase)",[24],0.0685
same,"λ0 (production rate of tumor cells, exponential phase)",[25],0.2431
same,"λ1 (tumor cells mass produced in the time unit, linear phase)",[25],0.2049
